Literature values, collected in publication PMC9851200, “Multiparameter phenotypic screening for endogenous TFEB and TFE3 translocation identifies novel chemical series modulating lysosome function” (Autophagy, 2022).

Legend:
Set-up in all cases: method as in original PKIS2 published data
[1] = biological target: kinases (KINOMEscan panel) (Homo sapiens, UniProt Q9UQM7); details: kinase CAMK2A; Published KINOMEscan; ref original PKIS2 published data; cited from earlier work
[2] = biological target: kinases (KINOMEscan panel) (Homo sapiens, UniProt Q9BYT3); details: kinase STK33; Published KINOMEscan; ref original PKIS2 published data; cited from earlier work
[3] = biological target: T1, kinases (KINOMEscan panel) (Homo sapiens, UniProt Q13470); details: TNK1; Published KINOMEscan; ref original PKIS2 published data; cited from earlier work
T1 sequence (Q13470 1-666): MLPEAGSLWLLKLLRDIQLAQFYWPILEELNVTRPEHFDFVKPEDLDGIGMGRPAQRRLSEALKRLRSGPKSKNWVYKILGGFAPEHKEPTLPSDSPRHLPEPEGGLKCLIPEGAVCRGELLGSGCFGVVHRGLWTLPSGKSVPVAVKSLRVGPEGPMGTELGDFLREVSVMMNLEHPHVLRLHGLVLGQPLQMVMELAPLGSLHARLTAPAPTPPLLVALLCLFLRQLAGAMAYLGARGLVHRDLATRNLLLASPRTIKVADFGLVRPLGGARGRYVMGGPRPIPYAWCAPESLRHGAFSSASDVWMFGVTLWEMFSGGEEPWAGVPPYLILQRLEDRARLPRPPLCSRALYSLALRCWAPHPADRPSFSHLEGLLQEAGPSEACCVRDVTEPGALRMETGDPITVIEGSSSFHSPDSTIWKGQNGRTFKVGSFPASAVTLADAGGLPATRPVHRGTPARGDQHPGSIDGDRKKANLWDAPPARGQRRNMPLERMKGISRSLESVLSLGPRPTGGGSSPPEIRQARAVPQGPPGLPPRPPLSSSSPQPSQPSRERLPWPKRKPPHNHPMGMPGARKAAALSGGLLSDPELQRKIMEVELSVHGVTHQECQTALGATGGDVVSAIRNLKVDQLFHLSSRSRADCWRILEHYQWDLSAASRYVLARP

[4] = biological target: kinases (KINOMEscan panel) (Homo sapiens, UniProt P49137); details: kinase MAPKAPK2; Published KINOMEscan; ref original PKIS2 published data; cited from earlier work
[5] = biological target: T2, kinases (KINOMEscan panel) (Homo sapiens, UniProt P42681); details: kinase TXK; Published KINOMEscan; ref original PKIS2 published data; cited from earlier work
T2 sequence (P42681 1-527): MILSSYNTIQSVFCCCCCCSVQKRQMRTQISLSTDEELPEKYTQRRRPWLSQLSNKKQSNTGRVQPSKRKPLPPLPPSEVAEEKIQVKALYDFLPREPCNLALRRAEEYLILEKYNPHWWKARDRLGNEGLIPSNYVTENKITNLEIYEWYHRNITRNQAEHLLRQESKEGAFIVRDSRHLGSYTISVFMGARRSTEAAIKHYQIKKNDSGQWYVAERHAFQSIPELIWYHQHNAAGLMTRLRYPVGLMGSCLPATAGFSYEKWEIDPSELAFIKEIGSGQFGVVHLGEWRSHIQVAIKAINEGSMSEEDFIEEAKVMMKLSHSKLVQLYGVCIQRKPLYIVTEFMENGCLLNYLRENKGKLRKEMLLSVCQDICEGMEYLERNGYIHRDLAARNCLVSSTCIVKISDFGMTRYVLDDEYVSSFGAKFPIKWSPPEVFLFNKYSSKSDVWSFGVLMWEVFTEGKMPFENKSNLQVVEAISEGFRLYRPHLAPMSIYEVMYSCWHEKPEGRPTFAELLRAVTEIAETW

[6] = biological target: kinases (KINOMEscan panel) (Homo sapiens, UniProt Q9H2X6); details: Published KINOMEscan; ref original PKIS2 published data; cited from earlier work
[7] = biological target: kinases (KINOMEscan panel) (Homo sapiens, UniProt P36894); details: kinase BMPR1A; Published KINOMEscan; ref original PKIS2 published data; cited from earlier work
[8] = biological target: T3, kinases (KINOMEscan panel) (Homo sapiens, UniProt Q14164); details: cited from earlier work
T3 sequence (Q14164 1-716): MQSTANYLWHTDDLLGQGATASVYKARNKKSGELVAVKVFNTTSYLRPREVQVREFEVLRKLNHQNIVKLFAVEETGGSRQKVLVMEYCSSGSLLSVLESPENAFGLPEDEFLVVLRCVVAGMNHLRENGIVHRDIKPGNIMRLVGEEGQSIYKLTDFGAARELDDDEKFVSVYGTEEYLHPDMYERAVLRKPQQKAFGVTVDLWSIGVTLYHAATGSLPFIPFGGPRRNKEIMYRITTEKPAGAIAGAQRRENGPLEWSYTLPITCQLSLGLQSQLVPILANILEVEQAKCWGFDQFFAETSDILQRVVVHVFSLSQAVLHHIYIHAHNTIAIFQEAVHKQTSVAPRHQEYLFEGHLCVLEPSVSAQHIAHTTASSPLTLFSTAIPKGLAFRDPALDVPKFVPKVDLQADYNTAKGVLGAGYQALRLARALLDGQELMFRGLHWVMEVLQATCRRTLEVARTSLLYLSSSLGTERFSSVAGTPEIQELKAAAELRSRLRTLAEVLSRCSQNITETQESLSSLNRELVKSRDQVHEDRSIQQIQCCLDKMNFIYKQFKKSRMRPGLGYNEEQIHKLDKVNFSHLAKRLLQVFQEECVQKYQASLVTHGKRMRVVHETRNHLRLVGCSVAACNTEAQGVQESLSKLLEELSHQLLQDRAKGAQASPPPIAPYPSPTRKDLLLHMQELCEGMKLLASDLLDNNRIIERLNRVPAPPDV

[9] = biological target: kinases (KINOMEscan panel) (Homo sapiens, UniProt Q86Y07); details: Published KINOMEscan; ref original PKIS2 published data; cited from earlier work
kinases (KINOMEscan panel) (Homo sapiens, UniProt Q86Y07), sequence (Q86Y07 whole entry): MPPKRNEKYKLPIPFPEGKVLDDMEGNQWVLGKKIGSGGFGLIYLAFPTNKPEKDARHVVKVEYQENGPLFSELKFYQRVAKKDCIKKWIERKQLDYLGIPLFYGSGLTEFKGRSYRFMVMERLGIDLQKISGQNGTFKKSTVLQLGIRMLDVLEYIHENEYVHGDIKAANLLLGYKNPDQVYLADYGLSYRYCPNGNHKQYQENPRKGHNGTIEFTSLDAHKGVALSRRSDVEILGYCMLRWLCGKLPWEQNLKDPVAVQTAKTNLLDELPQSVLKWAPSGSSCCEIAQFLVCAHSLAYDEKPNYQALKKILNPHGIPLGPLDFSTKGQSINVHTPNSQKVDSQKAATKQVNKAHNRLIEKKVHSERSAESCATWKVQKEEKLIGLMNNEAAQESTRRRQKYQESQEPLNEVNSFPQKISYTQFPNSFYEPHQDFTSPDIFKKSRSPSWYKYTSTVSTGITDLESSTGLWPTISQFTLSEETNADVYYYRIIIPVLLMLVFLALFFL

kinases (KINOMEscan panel) (Homo sapiens, UniProt Q9UQM7), sequence (Q9UQM7 whole entry): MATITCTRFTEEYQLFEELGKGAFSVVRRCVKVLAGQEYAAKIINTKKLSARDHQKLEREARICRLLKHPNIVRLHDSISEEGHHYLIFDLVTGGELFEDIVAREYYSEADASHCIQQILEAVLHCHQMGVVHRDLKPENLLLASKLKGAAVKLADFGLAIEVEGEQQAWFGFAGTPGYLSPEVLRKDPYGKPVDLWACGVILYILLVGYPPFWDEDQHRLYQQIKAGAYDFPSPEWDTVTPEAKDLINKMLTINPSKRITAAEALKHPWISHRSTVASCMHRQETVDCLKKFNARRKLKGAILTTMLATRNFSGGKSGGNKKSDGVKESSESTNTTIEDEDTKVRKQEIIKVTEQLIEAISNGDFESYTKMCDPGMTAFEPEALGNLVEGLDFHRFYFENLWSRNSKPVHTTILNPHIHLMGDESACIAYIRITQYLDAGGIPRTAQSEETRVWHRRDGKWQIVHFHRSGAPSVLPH
kinases (KINOMEscan panel) (Homo sapiens, UniProt P49137), sequence (P49137 whole entry): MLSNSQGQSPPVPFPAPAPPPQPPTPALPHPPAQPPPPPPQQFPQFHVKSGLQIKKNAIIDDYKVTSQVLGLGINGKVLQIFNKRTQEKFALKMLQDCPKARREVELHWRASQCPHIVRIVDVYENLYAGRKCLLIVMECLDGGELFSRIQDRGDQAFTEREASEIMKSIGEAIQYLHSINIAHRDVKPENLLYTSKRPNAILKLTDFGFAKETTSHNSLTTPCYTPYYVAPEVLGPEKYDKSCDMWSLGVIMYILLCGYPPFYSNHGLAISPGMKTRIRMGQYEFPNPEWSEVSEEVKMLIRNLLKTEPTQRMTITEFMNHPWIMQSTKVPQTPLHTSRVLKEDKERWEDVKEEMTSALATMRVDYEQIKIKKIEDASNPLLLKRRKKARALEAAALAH
kinases (KINOMEscan panel) (Homo sapiens, UniProt P36894), sequence (P36894 24-532): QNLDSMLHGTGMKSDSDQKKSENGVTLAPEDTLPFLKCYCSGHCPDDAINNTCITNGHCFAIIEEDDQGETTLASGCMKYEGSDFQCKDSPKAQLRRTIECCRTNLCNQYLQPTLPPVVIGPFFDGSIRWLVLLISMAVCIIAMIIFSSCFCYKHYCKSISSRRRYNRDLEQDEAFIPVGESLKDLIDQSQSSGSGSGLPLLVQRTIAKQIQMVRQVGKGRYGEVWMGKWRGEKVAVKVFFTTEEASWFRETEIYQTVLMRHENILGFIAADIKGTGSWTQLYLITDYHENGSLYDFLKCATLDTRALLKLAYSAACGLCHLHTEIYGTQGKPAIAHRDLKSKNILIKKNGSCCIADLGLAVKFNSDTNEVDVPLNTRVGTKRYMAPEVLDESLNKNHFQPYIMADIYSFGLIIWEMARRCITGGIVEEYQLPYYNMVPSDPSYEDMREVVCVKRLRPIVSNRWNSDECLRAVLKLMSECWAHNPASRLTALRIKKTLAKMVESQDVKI
kinases (KINOMEscan panel) (Homo sapiens, UniProt Q9H2X6), sequence (Q9H2X6 whole entry): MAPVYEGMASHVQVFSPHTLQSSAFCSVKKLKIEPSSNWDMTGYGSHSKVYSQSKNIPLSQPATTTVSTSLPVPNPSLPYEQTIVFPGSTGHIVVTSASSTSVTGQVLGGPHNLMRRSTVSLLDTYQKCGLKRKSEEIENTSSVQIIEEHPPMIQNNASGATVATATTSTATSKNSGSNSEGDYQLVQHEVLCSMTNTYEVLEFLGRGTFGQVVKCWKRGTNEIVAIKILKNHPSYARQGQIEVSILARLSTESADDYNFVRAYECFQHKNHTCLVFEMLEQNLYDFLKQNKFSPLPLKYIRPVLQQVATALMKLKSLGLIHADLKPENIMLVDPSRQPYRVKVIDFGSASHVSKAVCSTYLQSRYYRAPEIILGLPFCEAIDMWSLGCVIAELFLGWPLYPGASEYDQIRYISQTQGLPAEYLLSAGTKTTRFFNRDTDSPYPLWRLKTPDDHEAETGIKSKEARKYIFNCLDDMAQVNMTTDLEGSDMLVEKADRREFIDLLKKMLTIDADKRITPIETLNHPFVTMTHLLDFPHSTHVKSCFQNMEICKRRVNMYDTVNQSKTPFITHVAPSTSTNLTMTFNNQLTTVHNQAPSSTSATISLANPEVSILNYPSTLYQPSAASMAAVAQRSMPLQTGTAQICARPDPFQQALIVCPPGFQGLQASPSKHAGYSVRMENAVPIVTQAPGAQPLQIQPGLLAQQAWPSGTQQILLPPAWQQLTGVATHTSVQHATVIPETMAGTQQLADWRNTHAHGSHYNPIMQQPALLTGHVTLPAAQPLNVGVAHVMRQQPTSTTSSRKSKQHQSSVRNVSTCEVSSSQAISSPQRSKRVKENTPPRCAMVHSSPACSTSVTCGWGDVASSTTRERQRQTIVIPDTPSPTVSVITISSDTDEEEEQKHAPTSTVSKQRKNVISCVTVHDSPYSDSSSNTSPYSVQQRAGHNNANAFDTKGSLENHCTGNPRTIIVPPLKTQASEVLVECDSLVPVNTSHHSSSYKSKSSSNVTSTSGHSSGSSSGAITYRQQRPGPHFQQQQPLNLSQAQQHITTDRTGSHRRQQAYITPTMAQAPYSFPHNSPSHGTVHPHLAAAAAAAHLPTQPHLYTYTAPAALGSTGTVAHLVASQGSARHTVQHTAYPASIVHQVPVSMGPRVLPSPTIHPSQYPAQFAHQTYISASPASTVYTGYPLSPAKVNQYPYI
kinases (KINOMEscan panel) (Homo sapiens, UniProt Q9BYT3), sequence (Q9BYT3 whole entry): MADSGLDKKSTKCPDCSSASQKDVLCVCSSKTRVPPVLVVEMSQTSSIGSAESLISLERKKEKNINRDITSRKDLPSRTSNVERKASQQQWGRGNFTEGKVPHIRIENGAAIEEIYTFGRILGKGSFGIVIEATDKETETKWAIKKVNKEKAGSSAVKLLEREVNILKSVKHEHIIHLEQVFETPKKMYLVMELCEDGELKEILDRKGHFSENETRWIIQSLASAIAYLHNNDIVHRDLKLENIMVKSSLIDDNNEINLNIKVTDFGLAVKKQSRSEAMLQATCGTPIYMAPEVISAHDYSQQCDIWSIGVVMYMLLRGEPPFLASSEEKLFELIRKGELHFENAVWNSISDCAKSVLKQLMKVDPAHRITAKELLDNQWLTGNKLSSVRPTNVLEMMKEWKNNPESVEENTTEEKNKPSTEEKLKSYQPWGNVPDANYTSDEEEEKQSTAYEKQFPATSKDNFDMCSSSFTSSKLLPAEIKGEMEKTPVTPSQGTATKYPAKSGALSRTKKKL

Cc1cccc(-c2nc(Nc3ccncc3)c3ccccc3n2)n1 [NK215]
KINOMEscan CAMK2A [1]: 6
KINOMEscan STK33 [2]: 2
KINOMEscan TNK1 [3]: 39
KINOMEscan MAPKAPK2 [4]: 0
KINOMEscan TXK [5]: 11
KINOMEscan HIPK2 [6]: 0
KINOMEscan BMPR1A [7]: 0
KINOMEscan IKBKE/IKK-epsilon [8]: 0
KINOMEscan VRK2 [9]: 0
